Measured values as given in PubChem BioAssay (NCI).
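Step 1: Grow cells in 96-well plates. Step 2: Expose to compound for 48 hours at 5 concentrations. Step 3: Interpolate endpoints linearly; if unreached, use highest concentration. GI50 marks 50% less growth. TGI: concentration producing complete growth inhibition.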

Assays:
Assay in all cases: NCI tumour cell line growth inhibition, 48 h
MDA-MB-231 breast = tested on: MDA-MB-231 breast
HOP-18 NSCLC = tested on: HOP-18 NSCLC
M19-MEL melanoma = tested on: M19-MEL melanoma
MDA-MB-435 = tested on: MDA-MB-435
DMS 114 small cell lung = tested on: DMS 114 small cell lung
T-47D breast = tested on: T-47D breast
RXF-631 renal = tested on: RXF-631 renal
MDA-N = tested on: MDA-N
NCI/ADR-RES ovarian = tested on: NCI/ADR-RES ovarian
SN12K1 renal = tested on: SN12K1 renal
P388 leukemia = tested on: P388 leukemia
P388/ADR leukemia = tested on: P388/ADR leukemia

Compound | TGI (HOP-18 NSCLC) [µM] | TGI (M19-MEL melanoma) [µM] | TGI (DMS 114 small cell lung) [µM] | TGI (RXF-631 renal) [µM] | also measured
OCCOc1ccc(-c2cc(-c3ccccn3)nc(-c3ccccn3)c2)cc1 | 5.59 | 0.593 | 1.93 | > 100 | TGI (MDA-MB-231 breast): > 40.2 µM; TGI (MDA-MB-435): > 100 µM; TGI (T-47D breast): > 100 µM; TGI (MDA-N): > 100 µM; TGI (NCI/ADR-RES ovarian): 2.4 µM
COc1c2c(c3c(c1C1OC(C)[C@@H](C)O1)CC(C)(C)O3)C(=O)c1ccccc1C2=O (some centres not stated) | – | > 100 | > 100 | 33.4 | –
c1ccc(SC2(Sc3ccccc3)CCCC2)cc1 | – | > 100 | > 100 | > 100 | –
NNC(=S)N/N=C(\CCCC(=O)NCCc1ccccc1)CC(=O)c1ccccc1 | > 100 | > 100 | > 100 | – | –
CC[P+](C)(Cc1ccccc1)c1ccccc1 (configuration not stated) | > 100 | > 100 | > 100 | – | –
COc1cc(CCc2cccnc2)cc(OC)c1OC | > 100 | > 100 | > 100 | – | –
Cc1cccc(C(=O)c2cccc3ccccc23)c1C(=O)O | > 100 | > 100 | 13.8 | > 100 | –
CC1=C(C(=O)NCc2ccccc2)C(c2ccc(C3C(C(=O)NCc4ccccc4)=C(C)NC(C)=C3C(=O)NCc3ccccc3)cc2)C(C(=O)NCc2ccccc2)=C(C)N1 | 52.7 | 21.3 | 25.9 | – | –
O=C1OC(=O)c2c1c(-c1ccccc1)cn2-c1ccc(Cl)cc1 | > 100 | > 100 | > 100 | > 100 | –
N#C/C(=C\c1ccccc1O)C(N)=O | – | > 100 | > 100 | > 100 | –
CC1=CC2CC(C)=C(CC[C@]3(C)CC[C@H]([C@@H](C)C(=O)O)OO3)C(C)(C)C2CC1 (some centres not stated) | 1.45 | 3.05 | 0.973 | 2.95 | –
[O-]/[N+](=C\c1ccccc1)[C@H](COCc1ccccc1)c1ccccc1 | 90.4 | > 100 | > 100 | > 100 | –
CCC(C)CN1C(=O)NC(C)(Cc2ccccc2)C1=O (configuration not stated) | > 100 | > 100 | > 100 | – | –
CC1[C@@H]2[C@@H](C=C3C4CCC5Cc6nc7c(nc6C[C@@]5(C)C4C[C@H](O)[C@]32CO)CC2CCC3C4=C[C@H]5O[C@@]6(O[C@@](C)(CO)C[C@@H]6O)C(C)[C@@]5(O)[C@]4(C)[C@@H](O)CC3[C@]2(C)C7)O[C@]12CCC(C)(C)O2 (some centres not stated) | > 3.65 | > 3.65 | > 3.65 | – | TGI (SN12K1 renal): > 3.65 µM; GI50 (HOP-18 NSCLC): 2.08 µM; GI50 (M19-MEL melanoma): 2.13 µM; TGI (P388 leukemia): > 3.65 µM; TGI (P388/ADR leukemia): > 3.65 µM; TGI (NCI/ADR-RES ovarian): > 3.65 µM
O=C(Nc1c(O)[nH]c(=S)[nH]c1=O)c1ccccn1 | > 100 | > 100 | > 100 | > 100 | –
CC(=O)OCC1OC(Nc2[nH]c(=O)n(C)c(=O)c2-c2csc(N)n2)C(OC(C)=O)C(OC(C)=O)C1OC(C)=O (configuration not stated) | > 100 | > 100 | > 100 | > 100 | –
CCN(CC)CCNC(=O)c1ccccc1NC(=O)C(=O)Nc1ccccc1C(=O)NCCN(CC)CC | > 100 | 57.5 | 79.7 | > 100 | –
O=C1c2ccccc2C2(O)Nc3cc(O)ccc3C12O (configuration not stated) | > 100 | – | > 100 | > 100 | –
CCOc1ccc(NC(=O)CC2SC(=Nc3ccc(Cl)cc3)NC2=O)cc1 (configuration not stated) | > 100 | > 100 | > 100 | > 100 | –
